Reference: PubChem BioAssay AID1671465 (Sanford-Burnham Center for Chemical Genomics, 2021)
Activity calls are given as the source filed them.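 Rule for the calls: active = compounds whose mean EC50 for raising GC-A cGMP output is under 66 µM; inactive = the rest.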

The molecules below were run against Atrial natriuretic peptide receptor 1 (Homo sapiens) (UniProt P16066) (assay: human GC-A cGMP response enhancers – HEK293 GC-A cells, cGMP TR-FRET, powder samples, SAR follow-up (AID 1671465)). Details: EC30 ANP.
Sequence of Atrial natriuretic peptide receptor 1 (Homo sapiens) (P16066 whole entry, looked up): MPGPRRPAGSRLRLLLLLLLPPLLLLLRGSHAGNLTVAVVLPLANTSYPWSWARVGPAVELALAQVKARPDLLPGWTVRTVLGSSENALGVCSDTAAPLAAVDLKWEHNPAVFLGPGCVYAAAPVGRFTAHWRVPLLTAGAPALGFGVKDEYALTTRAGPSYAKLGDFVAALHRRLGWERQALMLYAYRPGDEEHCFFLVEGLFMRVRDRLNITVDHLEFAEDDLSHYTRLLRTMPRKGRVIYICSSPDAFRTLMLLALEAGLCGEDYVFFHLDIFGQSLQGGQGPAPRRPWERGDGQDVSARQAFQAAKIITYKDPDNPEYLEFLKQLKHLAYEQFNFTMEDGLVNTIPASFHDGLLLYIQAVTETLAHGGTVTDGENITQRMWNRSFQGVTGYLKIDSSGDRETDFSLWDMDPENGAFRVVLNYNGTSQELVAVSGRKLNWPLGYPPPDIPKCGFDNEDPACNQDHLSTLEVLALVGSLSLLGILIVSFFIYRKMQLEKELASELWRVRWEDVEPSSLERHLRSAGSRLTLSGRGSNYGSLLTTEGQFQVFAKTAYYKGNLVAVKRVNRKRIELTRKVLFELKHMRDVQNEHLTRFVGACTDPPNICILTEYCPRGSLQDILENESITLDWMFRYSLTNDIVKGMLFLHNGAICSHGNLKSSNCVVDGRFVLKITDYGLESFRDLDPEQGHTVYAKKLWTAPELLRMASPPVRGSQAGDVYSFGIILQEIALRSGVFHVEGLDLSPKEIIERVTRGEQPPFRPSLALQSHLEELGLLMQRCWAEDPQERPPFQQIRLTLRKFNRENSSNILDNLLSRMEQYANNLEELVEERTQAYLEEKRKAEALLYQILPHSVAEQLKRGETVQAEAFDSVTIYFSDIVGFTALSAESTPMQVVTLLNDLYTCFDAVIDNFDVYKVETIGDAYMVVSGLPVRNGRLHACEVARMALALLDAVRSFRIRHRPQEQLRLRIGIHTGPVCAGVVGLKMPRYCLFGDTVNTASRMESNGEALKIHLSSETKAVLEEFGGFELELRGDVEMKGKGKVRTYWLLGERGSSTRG
An EC50 of 1150 nM was found for CC(=O)N1CCC(C(=O)Nc2nc3c(F)cc(F)cc3s2)CC1 in this work. An EC50 of 23900 nM was found for CC(=O)Nc1nc2c(F)cc(F)cc2s1 in this work. An EC50 of 3360 nM was found for O=C(Nc1nc2c(F)cc(F)cc2s1)C1CCCN(C(=O)c2ccccc2)C1 (stereo unspecified) in this work. An EC50 of 840 nM was found for CC(C)N1CCC(C(=O)Nc2nc3c(F)cc(F)cc3s2)CC1 in this work. An EC50 of 2000 nM was found for CC(C)(C)C(=O)N1CCC(C(=O)Nc2nc3c(Cl)cccc3s2)CC1 in this work. An EC50 of 2020 nM was found for O=C(Nc1nc2c(F)cc(F)cc2s1)C1CCCN(C(=O)Cc2ccccc2)C1 (stereo unspecified) in this work. CC(C)(C)C(=O)N1CCC(C(=O)Nc2nc3c(Cl)ccc(Cl)c3s2)CC1 was tested, and the EC50 was > 66700 nM (inactive). An EC50 of 5070 nM was found for CC(C)(C)C(=O)N1CCCC(C(=O)Nc2nc3c(F)cc(F)cc3s2)C1 (stereo unspecified) in this work. An EC50 of 1230 nM was found for CN1CCCC(C(=O)Nc2nc3c(F)cc(F)cc3s2)C1 (stereo unspecified) in this work. An EC50 of 2730 nM was found for O=C(Nc1nc2c(F)cc(F)cc2s1)C1CCCCC1 in this work. An EC50 of 1650 nM was found for CC(=O)N1CCCC(C(=O)Nc2nc3c(F)cc(F)cc3s2)C1 (stereo unspecified) in this work. An EC50 of 1970 nM was found for O=C(Nc1nc2c(F)cc(F)cc2s1)C1CCCN(C(=O)C2CC2)C1 (stereo unspecified) in this work. An EC50 of 1750 nM was found for CS(=O)(=O)N1CCCC(C(=O)Nc2nc3c(F)cc(F)cc3s2)C1 (stereo unspecified) in this work. An EC50 of 2090 nM was found for CC(C)(C)C(=O)N1CCC(C(=O)Nc2nc3c(F)cc(F)cc3s2)C1 (stereo unspecified) in this work. An EC50 of 1720 nM was found for O=C(Nc1nc2c(F)cc(F)cc2s1)C1CCN(C(=O)C2CCC2)CC1 in this work. An EC50 of 393 nM was found for CN(C)CCN1CCCC(C(=O)Nc2nc3c(F)cc(F)cc3s2)C1 (stereo unspecified) in this work. An EC50 of 2410 nM was found for O=C(Nc1nc2c(F)cc(F)cc2s1)C1CCCN(Cc2ccccc2)C1 (stereo unspecified) in this work. An EC50 of 3570 nM was found for CC(C)(C)CC(=O)N1CCCC(C(=O)Nc2nc3c(F)cc(F)cc3s2)C1 (stereo unspecified) in this work. An EC50 of 8260 nM was found for CC(C)(C)OC(=O)N1CCCC(C(=O)Nc2nc3c(F)cc(F)cc3s2)C1 (stereo unspecified) in this work. An EC50 of 1810 nM was found for O=C(Nc1nc2c(F)cc(F)cc2s1)C1CCCN(C(=O)C2CCC2)C1 (stereo unspecified) in this work. An EC50 of 1050 nM was found for O=C(Nc1nc2c(F)cc(F)cc2s1)C1CCCNC1 (stereo unspecified) in this work.
